Among the data in PubChem BioAssay AID248 (DTP/NCI, 2004) are T/C values, retold here.

Several values for one entry are separate records, joined by “and”; a condition that tells them apart may be missing. Equal values may be shown once. Inconclusive results and toxic doses are left out.

For this experiment, the system named is L1210 leukemia ip in BDF1 mice, survival T/C. As to the kind of experiment: NCI In Vivo Anticancer Drug Screen. Data for tumor model L1210 Leukemia (intraperitoneal) in B6D2F1 (BDF1) mice. The settings on record: endpoint: mean survival time, higher = longer survival. An outline of the steps:
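Antitumor effect is assessed in tumor-bearing animals. Survival in the compound arm is compared with a vehicle-dosed control arm and expressed as their quotient.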

[1] abbreviates: dose: 100.0 mg/kg/injection, schedule: Q04DX003 (ip), vehicle: Klucel (hydroxypropylcellulose) (HPC).
Where [2] appears, read: dose: 200.0 mg/kg/injection, schedule: Q04DX003 (ip), vehicle: Klucel (hydroxypropylcellulose) (HPC).
Setting [3] is: dose: 400.0 mg/kg/injection, schedule: Q04DX003 (ip), vehicle: Klucel (hydroxypropylcellulose) (HPC).
[4] abbreviates: dose: 100.0 mg/kg/injection, schedule: Q01DX001 (ip), vehicle: saline with Tween-80.
The mark [5] stands for this setting: dose: 200.0 mg/kg/injection, schedule: Q01DX001 (ip), vehicle: saline with Tween-80.
The mark [6] stands for this setting: dose: 50.0 mg/kg/injection, schedule: Q01DX009 (ip), vehicle: saline with Tween-80.
Setting [7] is: dose: 50.0 mg/kg/injection, schedule: Q04DX003 (ip), vehicle: saline with Tween-80.
[8] abbreviates: dose: 100.0 mg/kg/injection, schedule: Q01DX009 (ip), vehicle: saline with Tween-80.
The mark [9] stands for this setting: dose: 100.0 mg/kg/injection, schedule: Q04DX003 (ip), vehicle: saline with Tween-80.
Setting [10] is: dose: 200.0 mg/kg/injection, schedule: Q01DX009 (ip), vehicle: saline with Tween-80.
Where [11] appears, read: dose: 200.0 mg/kg/injection, schedule: Q04DX003 (ip), vehicle: saline with Tween-80.
Setting [12] is: dose: 100.0 mg/kg/injection, schedule: Q01DX009 (ip), vehicle: saline sonified.
[13] abbreviates: dose: 200.0 mg/kg/injection, schedule: Q01DX009 (ip), vehicle: saline sonified.

As to `Cc1c2cnccc2c(C)c2c1c1ccccc1n2C(C)C`, the T/C is, setting by setting: (dose: 37.5 mg/kg/injection, schedule: Q04DX003 (ip), vehicle: saline) 100 % of control; (dose: 62.5 mg/kg/injection, schedule: Q01DX009 (ip), vehicle: saline with Tween-80) 110 % of control; (dose: 75.0 mg/kg/injection, schedule: Q04DX003 (ip), vehicle: saline) 101 % of control; (dose: 150.0 mg/kg/injection, schedule: Q04DX003 (ip), vehicle: saline) 104 % of control; (dose: 300.0 mg/kg/injection, schedule: Q04DX003 (ip), vehicle: saline) 124 % of control.

`CC(C(=O)N1c2ccccc2Sc2ccccc21)[N+]1(C)CCCC1` (centres undefined): the T/C reads like this: (dose: 3.12 mg/kg/injection, schedule: Q01DX009 (ip), vehicle: saline) 97 % of control; (dose: 6.25 mg/kg/injection, schedule: Q01DX009 (ip), vehicle: saline) 103 % of control; (dose: 12.5 mg/kg/injection, schedule: Q01DX009 (ip), vehicle: saline) 102 % of control; (dose: 25.0 mg/kg/injection, schedule: Q01DX009 (ip), vehicle: saline) 102 % of control; (dose: 25.0 mg/kg/injection, schedule: Q04DX003 (ip), vehicle: saline) 107 % of control; (dose: 50.0 mg/kg/injection, schedule: Q01DX009 (ip), vehicle: saline) 91 % of control. In addition, where the note is “dose: 50.0 mg/kg/injection, schedule: Q04DX003 (ip), vehicle: saline”, the T/C was 91 % of control.

In the case of `O=C1c2ccccc2-c2c(N=Cc3ccc([N+](=O)[O-])cc3)cccc21`, the T/C is, setting by setting: under setting [1], 102 % of control; under setting [2], 89 % of control; under setting [3], 96 % of control.

For the molecule `C=CCCCCCCCCCC(CCCCC)C(=O)O` (centres undefined), the T/C runs as follows: under setting [4], 100 % of control; under setting [5], 94 % of control; (dose: 400.0 mg/kg/injection, schedule: Q01DX001 (ip), vehicle: saline with Tween-80) 92 % of control.

For `CCOC(=Nc1ccccc1)c1ccccc1`, the T/C by setting is: (dose: 100.0 mg/kg/injection, schedule: Q01DX009 (ip), vehicle: Klucel (hydroxypropylcellulose) (HPC)) 104 % of control; (dose: 200.0 mg/kg/injection, schedule: Q01DX009 (ip), vehicle: Klucel (hydroxypropylcellulose) (HPC)) 100 % of control; (dose: 400.0 mg/kg/injection, schedule: Q01DX009 (ip), vehicle: Klucel (hydroxypropylcellulose) (HPC)) 102 % of control.

As for `NC(=O)c1[nH]c(CCCc2ccccc2)nc1N`, the T/C is 102 % of control under setting [6]; 103 % of control under setting [7]; 110 % of control under setting [4]; 90 % of control under setting [8]; 109 % of control under setting [9]; 100 % of control under setting [5]. Besides, the T/C runs as follows: under setting [10], 102 % of control; under setting [11], 100 % of control.

Take `O=C1OC2(CCNCC2)C(=O)N1c1ccc(F)cc1`: the T/C (dose: 12.5 mg/kg/injection, schedule: Q01DX001 (ip), vehicle: carboxymethylcellulose (CMC)) is 104 % of control and the T/C (dose: 25.0 mg/kg/injection, schedule: Q01DX001 (ip), vehicle: carboxymethylcellulose (CMC)) is 101 % of control.

With `COc1cc2cc[n+](C)c(Cc3ccccc3)c2cc1OC`, the T/C was 111 % of control (dose: 25.0 mg/kg/injection, schedule: Q01DX009 (ip), vehicle: saline with Tween-80); 105 % of control (dose: 25.0 mg/kg/injection, schedule: Q04DX003 (ip), vehicle: saline with Tween-80); 107 % of control under setting [6]; 103 % of control under setting [7]; 96 % of control under setting [9].

Turning to `Cc1c(Cl)cccc1NC(=O)Nc1nccs1`, the T/C was 103 % of control under setting [7]; 101 % of control and 104 % of control under setting [8]; 100 % of control and 103 % of control (dose: 100.0 mg/kg/injection, schedule: Q04DX002 (ip), vehicle: saline with Tween-80); 101 % of control under setting [9]; 100 % of control under setting [10]; 95 % of control and 96 % of control (dose: 200.0 mg/kg/injection, schedule: Q04DX002 (ip), vehicle: saline with Tween-80). Further, the T/C is 114 % of control under setting [11] and 109 % of control (dose: 400.0 mg/kg/injection, schedule: Q04DX002 (ip), vehicle: saline with Tween-80).

Consider `O=C(CCBr)NCNC(=O)CCBr`, for which the T/C reads like this: (dose: 53.0 mg/kg/injection, schedule: Q04DX003 (ip), vehicle: Klucel (hydroxypropylcellulose) (HPC)) 114 % of control; (dose: 80.0 mg/kg/injection, schedule: Q04DX003 (ip), vehicle: Klucel (hydroxypropylcellulose) (HPC)) 109 % of control; (dose: 100.0 mg/kg/injection, schedule: Q01DX009 (ip), vehicle: saline) 86 % of control; under setting [9], 113 % of control; (dose: 120.0 mg/kg/injection, schedule: Q04DX003 (ip), vehicle: Klucel (hydroxypropylcellulose) (HPC)) 116 % of control; under setting [11], 117 % of control. For the same molecule, the T/C is 153 % of control (dose: 264.0 mg/kg/injection, schedule: Q04DX003 (ip), vehicle: acetone); 154 % of control (dose: 266.0 mg/kg/injection, schedule: Q04DX003 (ip), vehicle: Klucel (hydroxypropylcellulose) (HPC)); 114 % of control (dose: 266.0 mg/kg/injection, schedule: Q04DX003 (ip), vehicle: saline); 170 % of control under setting [3]; 113 % of control (dose: 400.0 mg/kg/injection, schedule: Q04DX003 (ip), vehicle: acetone); 151 % of control (dose: 400.0 mg/kg/injection, schedule: Q04DX003 (ip), vehicle: saline with Tween-80). Also, the T/C (dose: 400.0 mg/kg/injection, schedule: Q04DX003 (ip), vehicle: saline) was 120 % of control.

`O=C(O)c1cc(C(Cl)(Cl)Cl)ccc1C(Cl)(Cl)Cl`: the T/C is 95 % of control (dose: 50.0 mg/kg/injection, schedule: Q01DX009 (ip), vehicle: saline sonified); 97 % of control (dose: 50.0 mg/kg/injection, schedule: Q04DX003 (ip), vehicle: Klucel (hydroxypropylcellulose) (HPC)); 101 % of control under setting [12]; 96 % of control under setting [1]; 98 % of control under setting [13]; 103 % of control under setting [2].

For `O=C1CCCCC12CCCC2`, the T/C under setting [12] was 97 % of control; the T/C under setting [13] was 103 % of control; the T/C (dose: 400.0 mg/kg/injection, schedule: Q01DX009 (ip), vehicle: saline sonified) is 93 % of control.

With `O=C(OC12CCCCC1CCCC2)c1ccc([N+](=O)[O-])cc1` (centres undefined), the T/C under setting [1] is 96 % of control, the T/C under setting [10] was 90 % of control, the T/C under setting [2] is 101 % of control and the T/C under setting [3] was 96 % of control.

Turning to `O=C(CCCC(=O)N/N=C/c1ccc(Cl)cc1)N/N=C\c1ccc(Cl)cc1`, the T/C runs as follows: (dose: 50.0 mg/kg/injection, schedule: Q01DX001 (ip), vehicle: other) 102 % of control; (dose: 200.0 mg/kg/injection, schedule: Q01DX001 (ip), vehicle: other) 91 % of control; (dose: 400.0 mg/kg/injection, schedule: Q01DX001 (ip), vehicle: other) 91 % of control.

As to `N#C/C=C/C#N`, under setting [9], the T/C is 92 % of control.
